Data as given in patent US9045525B2, “Amyloid β-protein-specific production-inhibiting polypeptide” (THE DOSHISHA, priority 2012, dated 2015).
Entries after “also recorded” stand apart in the source; their conditions may differ.

How the values were obtained:
[1] = test system: CHO-K1 cells (7WD10 cells) that stably expressed APP protein; assay: Aβ protein production inhibition experiment in 7WD10 cells (sAPPβ, βCTF, Aβ); format: cell-based
Experimental: (§1) An experiment was conducted wherein #1, #2, and #4 polypeptides were reacted with CHO-K1 cells (7WD10 cells) that stably expressed APP protein and transiently expressed Notch to confirm the production of Aβ protein and cleavage of Notch protein.

[2] = test system: Notch transiently expressed in CHO-K1 cells (7WD10 cells); assay: Cleavage of Notch protein (NICD) in 7WD10 cells; format: cell-based; settings: for NICD in the cell lysate: polypeptide 25 or 50 μM; for abundance of the NICD in the cell lysate: polypeptide 1, 5, 10, 20, and 50 μM
Experimental: as §1

[3] = reported in NPL 1; cited from earlier work
CHO-K1 cells = assay: Mouse Aβ production inhibition experiment, CHO-K1 cells; format: cell-based; settings: polypeptide 20 μM, CHO-K1 cells expressing mouse-type APP, anti-mouse Aβ antibody Western blotting
Experimental: (§2) #1, #2, and #4 polypeptides were added to the culture solutions of CHO-K1 cells and Neuro 2A cells (N2A) in such a manner that the final concentration was 20 μM. As a control, L685458 (i.e., a γ-secretase inhibitor) and DMSO were added thereto in such a manner that the final concentration was 20 μM.
(§3) Thereafter, Aβ contained in the cell culture medium was identified by using a Western-blotting method with an antibody (anti-mouse Aβ antibody) that recognizes Aβ. […] In the figure, L indicates L685458, which is a γ-secretase inhibitor (final concentration of 1 μM).

Neuro 2A cells (N2A) = assay: Mouse Aβ production inhibition experiment, Neuro 2A cells; format: cell-based; settings: polypeptide 20 μM, Neuro2A cells expressing mouse-type APP, anti-mouse Aβ antibody Western blotting
Experimental: as §2, §3

[4] = molecular target: β-secretase against APP (APP-EQ-FLAG) (Homo sapiens, UniProt P05067); assay: β-Secretase activity inhibition experiment in vitro, APP-EQ-FLAG substrate; format: biochemical; settings: polypeptide 50 μM, 4 hours, 37° C., Western blotting
Experimental: A solution containing the polypeptide having APP (APP-EQ-FLAG: SEQ ID NO: 18) as shown in FIG. 5(A) was prepared in such a manner that its final concentration was 50 nM.
To this solution, 9-7 polypeptide, 6-5 polypeptide, #1 polypeptide, #2 polypeptide, #3 polypeptide, #4 polypeptide, #5 polypeptide, #6 polypeptide, #7 polypeptide, #8 polypeptide, #9 polypeptide, and #10 polypeptide were added in such a manner that each solution had the final concentration of 50 μM, followed by reacting with 50 μL β-secretase (0.02 U/μL) for 4 hours. The reaction temperature was 37° C. As a negative control experiment, DMSO was used in place of the 12 types of polypeptides mentioned above.
After completion of the reaction, each sample was subjected to Western blotting using a monoclonal antibody (82E-1) that specifically recognizes the N terminal of APP-EQ-FLAG as shown in FIG. 5(A). Thereafter, the amount of Aβ33-FLAG protein separated by β-secretase was measured.
An experiment was conducted in the same manner as Experimental Example 4 described above except that S4 and #4 polypeptides were used as the polypeptide and the amounts of these polypeptides added were adjusted so that the final concentrations were 1, 5, 10, 20, 50, and 100 μM.

[5] = molecular target: γ-secretase against βCTF (C99-FLAG) (Homo sapiens, UniProt P05067); assay: γ-Secretase activity inhibition experiment in vitro, C99-FLAG substrate; format: biochemical; settings: for cleavage activity of γ-secretase against βCTF (Aβ40 from C99-FLAG): polypeptide 50 μM, 4 hours, 37° C., Western blotting
Experimental: (§4) A polypeptide having βCTF (C99-FLAG: SEQ ID NO: 16) and mouse-derived Notch protein having a FLAG peptide at the C-terminal side (modification of NCBI Accession No. Q01705.2; SEQ ID NO: 17; hereunder referred to as “Notch”) shown in FIG. 2(A) were each made into a solution having a final concentration of 50 nM.
(§5) To these solutions, 9-7 polypeptide, 6-5 polypeptide, #1 polypeptide, #2 polypeptide, #3 polypeptide, and #4 polypeptide were added in such a manner that the final concentrations were 50 μM, followed by reacting with 50 μL of CHAPSO-solubilized membrane fraction (γ-secretase-containing fraction) for 4 hours. The reaction temperature was 37° C. As a negative control experiment, DMSO was used in place of the six types of polypeptides described above.
(§6) Each sample after completion of the reaction was measured in the following manner. As shown in FIG. 2(A), a sample using C99-FLAG was subjected to Western blotting using a monoclonal antibody (82E-1) that specifically recognizes the N terminal of C99-FLAG, and the amount of Aβ40 protein produced by the cleavarage by γ-secretase was measured. In contrast, the reaction sample using Notch-FLAG was subjected to Western blotting using an anti-FLAG monoclonal antibody, and the amount of NICD produced to the separete by γ-secretase was also measured. FIG. 2(B) and FIG. 2(C) show the results.
(§7) An experiment was conducted in the same manner as in Experimental Example 1 described above, except that only #1 polypeptide was used and the amount of #1 polypeptide was selected so that the final concentrations were 0.5, 1, 5, 10, 20, and 50 μM.
(§8) An experiment was conducted in the same manner as in Experimental Example 1 described above, except that S4 polypeptide was used as the polypeptide, and each addition amount was set in such a manner that the final concentrations were 1, 5, 10, 20, and 50 μM. In this Experimental Example, #4 polypeptide was added in such a manner that the final result was 50 μM.

[6] = molecular target: γ-secretase against Notch (Mus musculus, UniProt Q01705, V1997L); assay: γ-Secretase activity inhibition experiment in vitro, Notch-FLAG substrate; format: biochemical
Experimental: as §4, §5, §6, §7, §8

[7] = polypeptide 1, 5, 10, 20, and 50 μM
[8] = polypeptide 0.5, 1, 5, 10, 20, and 50 μM

Chain of β-secretase against APP (APP-EQ-FLAG) (P05067 with tags, fused parts or gaps): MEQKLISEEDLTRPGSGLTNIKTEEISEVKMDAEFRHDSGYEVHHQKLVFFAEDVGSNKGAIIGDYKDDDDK
Chain of γ-secretase against βCTF (C99-FLAG) (P05067 with tags, fused parts or gaps): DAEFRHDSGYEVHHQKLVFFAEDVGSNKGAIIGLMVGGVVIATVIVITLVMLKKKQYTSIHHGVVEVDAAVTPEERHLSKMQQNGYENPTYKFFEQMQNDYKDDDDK
Chain of γ-secretase against Notch (Q01705 with tags, fused parts or gaps V1997L): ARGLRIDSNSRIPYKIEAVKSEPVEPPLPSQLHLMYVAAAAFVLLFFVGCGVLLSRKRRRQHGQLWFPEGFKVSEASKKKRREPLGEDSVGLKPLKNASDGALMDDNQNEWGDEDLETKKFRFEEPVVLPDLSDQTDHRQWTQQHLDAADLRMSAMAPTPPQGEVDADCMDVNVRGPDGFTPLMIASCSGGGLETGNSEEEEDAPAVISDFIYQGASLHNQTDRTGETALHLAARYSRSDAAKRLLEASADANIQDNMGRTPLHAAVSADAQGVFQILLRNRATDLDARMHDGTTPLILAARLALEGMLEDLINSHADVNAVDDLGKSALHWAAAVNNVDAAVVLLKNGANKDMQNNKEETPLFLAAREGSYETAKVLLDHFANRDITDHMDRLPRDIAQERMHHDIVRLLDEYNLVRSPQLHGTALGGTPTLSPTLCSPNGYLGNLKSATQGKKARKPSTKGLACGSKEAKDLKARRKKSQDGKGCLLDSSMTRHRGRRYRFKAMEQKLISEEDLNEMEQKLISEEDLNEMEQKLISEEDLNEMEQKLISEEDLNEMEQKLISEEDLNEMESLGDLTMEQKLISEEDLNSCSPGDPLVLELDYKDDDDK

CC(C)C[C@H](NC(=O)[C@H](Cc1ccccc1)C[C@@H](O)[C@H](Cc1ccccc1)NC(=O)OC(C)(C)C)C(=O)N[C@@H](Cc1ccccc1)C(N)=O [L685458, reference compound]
Aβ protein in the cell culture medium (released Aβ) ([1]; L685458 1 μM): decreased | Aβ protein in the cell lysate (intracellular Aβ) ([1]; L685458 1 μM): decrease in βCTF (C99) and Aβ protein was also observed | sAPP in the cell lysate ([1]; L685458 1 μM): such a phenomenon was not observed | βCTF (C99) in the cell lysate ([1]; L685458 1 μM): decrease in βCTF (C99) and Aβ protein was also observed | amount of NICD in the cell lysate ([2]; L685458 1 μM): the amount of NICD was decreased

C[C@H](NC(=O)[C@@H](O)c1cc(F)cc(F)c1)C(=O)N[C@@H]1C(=O)N(C)c2ccccc2-c2ccccc21 [LY-411,575]
effect on the thymus [3]: induces atrophy of the thymus | number of mature B cells in the spleen [3]: reduces the number of mature B cells in the spleen

FRBGWVYTYTV (FRXGWVYTYTV; HELM PEPTIDE1{[ac].F.R.[O=C([C@H](Cc1ccc(-c2ccccc2)cc1)N[*:1])[*:2]].G.W.V.Y.T.Y.T.V.[am]}$$$$V2.0; SMILES CC(=O)N[C@@H](Cc1ccccc1)C(=O)N[C@@H](CCCNC(=N)N)C(=O)N[C@@H](Cc1ccc(-c2ccccc2)cc1)C(=O)NCC(=O)N[C@@H](Cc1c[nH]c2ccccc12)C(=O)N[C@H](C(=O)N[C@@H](Cc1ccc(O)cc1)C(=O)N[C@H](C(=O)N[C@@H](Cc1ccc(O)cc1)C(=O)N[C@H](C(=O)N[C@H](C(N)=O)C(C)C)[C@@H](C)O)[C@@H](C)O)C(C)C) [S2, B is L-4,4′-biphenylalanine (Bph) residue]
Aβ protein in the cell culture medium ([1]; polypeptide final concentration of 50 μM): exhibited the Aβ protein production inhibition effect almost to the same level as #4 polypeptide and S4 polypeptide | NICD in the cell lysate [2]: did not have any influence on NICD

MDTVICDCYCDNYVCFCYSCSHV (Ac-MDTVICDCYCDNYVCFCYSCSHV-NH2; cysteine pairing not given here) [#2]
production of Aβ in the culture medium (CHO-K1 cells): the production of Aβ in the culture medium was reduced | production of Aβ in the culture medium (Neuro 2A cells (N2A)): the production of Aβ in the culture medium was reduced | Aβ protein in the cell culture medium (released Aβ) [1, 7]: decreased depending on the concentration | Aβ protein in the cell lysate (intracellular Aβ) [1, 7]: no longer present in a manner dependent on the final concentration | sAPP in the cell lysate [1, 7]: no longer present in a manner dependent on the final concentration | βCTF (C99) in the cell lysate [1, 7]: no longer present in a manner dependent on the final concentration | cleavage activity of β-secretase against APP (Aβ33-FLAG) [4]: inhibit the cleavage activity of β-secretase against APP more intensely | cleavage activity of γ-secretase against βCTF (Aβ40 from C99-FLAG) [5]: inhibited more cleavage activity of γ-secretase against βCTF | abundance of the NICD in the cell lysate [2]: not decreased

MGLISCDCYCDSTACFCYSCTDF (Ac-MGLISCDCYCDSTACFCYSCTDF-NH2; cysteine pairing not given here) [#3]
cleavage activity of β-secretase against APP (Aβ33-FLAG) [4]: inhibit the cleavage activity of β-secretase against APP more intensely

MGRVNCDCYCIGHYCYCYYCHNI (Ac-MGRVNCDCYCIGHYCYCYYCHNI-NH2; cysteine pairing not given here) [#8]
cleavage activity of β-secretase against APP (Aβ33-FLAG) [4]: inhibit the cleavage activity of β-secretase against APP more intensely

MLICDCYCDPRSCICGSCTLV (Ac-MLICDCYCDPRSCICGSCTLV-NH2; cysteine pairing not given here) [L13]
Aβ protein in the cell culture medium ([1]; polypeptide 25 or 50 μM): did not inhibit the production of Aβ | NICD in the cell lysate [2]: did not have any affect on NICD

MLYTSCDCYCDAFSCFCYSCGPY (Ac-MLYTSCDCYCDAFSCFCYSCGPY-NH2; cysteine pairing not given here) [#6]
cleavage activity of β-secretase against APP (Aβ33-FLAG) [4]: inhibit the cleavage activity of β-secretase against APP more intensely

MPLSICDCYCISTICYCYFCVHR (Ac-MPLSICDCYCISTICYCYFCVHR-NH2; cysteine pairing not given here) [#9]
cleavage activity of β-secretase against APP (Aβ33-FLAG) [4]: inhibit the cleavage activity of β-secretase against APP more intensely

MPTVYCDCYCAYNACYCYYCRSD (Ac-MPTVYCDCYCAYNACYCYYCRSD-NH2; cysteine pairing not given here) [#10]
cleavage activity of β-secretase against APP (Aβ33-FLAG) [4]: inhibit the cleavage activity of β-secretase against APP more intensely

MSIRVCDCYCHGDLCFCYSCINS (Ac-MSIRVCDCYCHGDLCFCYSCINS-NH2; cysteine pairing not given here) [#1]
production of Aβ in the culture medium (CHO-K1 cells): the production of Aβ in the culture medium was reduced | production of Aβ in the culture medium (Neuro 2A cells (N2A)): the production of Aβ in the culture medium was reduced | Aβ protein in the cell culture medium (released Aβ) [1, 7]: decreased depending on the concentration | Aβ protein in the cell lysate (intracellular Aβ) [1, 7]: no longer present in a manner dependent on the final concentration | sAPP in the cell lysate [1, 7]: no longer present in a manner dependent on the final concentration | βCTF (C99) in the cell lysate [1, 7]: no longer present in a manner dependent on the final concentration | cleavage activity of γ-secretase against Notch (NICD) ([6]; polypeptide 50 μM, 4 hours, 37° C., Western blotting): did not inhibit the cleavage activity against Notch | cleavage activity of γ-secretase against Notch (NICD) [6, 8]: did not inhibit the cleavage activity of γ-secretase against Notch | cleavage activity of β-secretase against APP (Aβ33-FLAG) [4]: inhibit the cleavage activity of β-secretase against APP more intensely | cleavage activity of γ-secretase against βCTF (Aβ40 from C99-FLAG) [5]: inhibited more cleavage activity of γ-secretase against βCTF; also recorded: inhibited the cleavage activity of γ-secretase against Aβ protein | cleavage activity of γ-secretase against βCTF [5, 8]: more intensively inhibits the cleavage activity of γ-secretase against βCTF in a concentration-dependent manner; also recorded: inhibited the cleavage activity of γ-secretase against βCTF in a concentration-dependent manner | abundance of the NICD in the cell lysate [2]: not decreased

MVPVVCDCYCFLSVCFCYSCYIT (Ac-MVPVVCDCYCFLSVCFCYSCYIT-NH2; cysteine pairing not given here) [#5]
cleavage activity of β-secretase against APP (Aβ33-FLAG) [4]: inhibit the cleavage activity of β-secretase against APP more intensely
